Structures are written as SMILES. pIC50: −log10 of the molar value.

The target of the test is T1, human glucagon receptor (Homo sapiens, UniProt P47871).
T1 construct: expressed in transfected cells; cell membranes used
Kind of test: Glucagon Receptor Binding Assay. The following applies: more active isomer of indicated compounds; 125I-glucagon displacement, membranes of CHO cells expressing cloned human glucagon receptor. How it is done: A stable CHO (Chinese hamster ovary) cell line expressing cloned human glucagon receptor was maintained as described (Chicchi et al. J Biol Chem 272, 7765-9 (1997); Cascieri et al. J Biol Chem 274, 8694-7 (1999)). […] After 4-12 hours incubation at room temperature, the radioactivity bound to the cell membranes was determined in a radioactive emission detection counter (Wallac-Microbeta). Data was analyzed using the software program Prism from GraphPad. The IC50 values were calculated using non-linear regression analysis assuming single site competition.

T1 sequence (P47871 26-477): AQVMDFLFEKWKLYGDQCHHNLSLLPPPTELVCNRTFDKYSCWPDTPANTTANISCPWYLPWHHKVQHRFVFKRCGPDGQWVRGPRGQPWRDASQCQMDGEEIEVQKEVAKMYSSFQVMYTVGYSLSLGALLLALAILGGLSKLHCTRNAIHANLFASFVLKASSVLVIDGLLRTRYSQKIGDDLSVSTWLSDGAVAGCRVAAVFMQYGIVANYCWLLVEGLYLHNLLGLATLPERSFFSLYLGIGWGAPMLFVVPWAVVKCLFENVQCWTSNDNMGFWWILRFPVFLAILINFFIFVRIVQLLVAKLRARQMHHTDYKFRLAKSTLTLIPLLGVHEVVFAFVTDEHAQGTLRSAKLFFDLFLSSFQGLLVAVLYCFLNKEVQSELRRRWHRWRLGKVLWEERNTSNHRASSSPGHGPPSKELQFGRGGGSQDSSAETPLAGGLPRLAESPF

Regarding `CCC[C@H](c1ccc(C(=O)NCCC(=O)O)cc1)C(c1ccc(Cl)cc1)c1ccnc2c(C)cc(Cl)cc12` (single isomer, unassigned) [Example 1], the negative-log IC50 (pIC50) (in general, −log10 of the IC50, conventionally taken in molar units) was 9.00.

`CCC[C@H](c1ccc(C(=O)NCCC(=O)O)cc1)C(c1ccc(Cl)cc1)c1cccc2nc(OC)ccc12` (single isomer, unassigned) [Example 2] showed a negative logarithm of the IC50 (pIC50) of 9.30. In the case of `CCC[C@H](c1ccc(C(=O)NCCC(=O)O)cc1)C(c1ccc(Cl)cc1)c1cnc2cc(C(F)(F)F)ccc2c1` (single isomer, unassigned) [Example 3] it was 8.30. With `CCC[C@H](c1ccc(C(=O)NCCC(=O)O)cc1)C(c1ccc(Cl)cc1)c1ccnc2cc(F)c(F)cc12` (single isomer, unassigned) [Example 157] the figure was 9.52; with `CCC[C@H](c1ccc(C(=O)NCCC(=O)O)cc1)C(c1ccc(Cl)cc1)c1ncnc2c(F)cc(C)cc12` (single isomer, unassigned) [Example 173], 8.85.

On to `CCCC(c1ccc(C(=O)NCCC(=O)O)cc1)C(c1ccc(Cl)cc1)c1nc(CC)c2cc(OC)ccc2n1` (single isomer, unassigned) [Example 174, N-(4-{1-[(4-Chlorophenyl)(4-Ethyl-6-Methoxyquinazolin-2-Yl)Methyl]Butyl}Benzoyl)-β-Alanine], for which the negative logarithm of the IC50 (pIC50) is 8.77.

In the case of `CCCC(c1ccc(C(=O)NCCC(=O)O)cc1)C(c1ccc(Cl)cc1)c1ccnc2cc(Cl)ccc12` (stereo not drawn) [Example 7], the pIC50 is 9.30.

`CCCC(c1ccc(C(=O)NCCC(=O)O)cc1)C(c1ccc(Cl)cc1)c1ccnc2c(Cl)cc(OC)cc12` (stereo not drawn) [Example 10]: the pIC50 was 9.22. In the case of `CCCC(c1ccc(C(=O)NCCC(=O)O)cc1)C(c1ccc(Cl)cc1)c1cc(C)nc2ccc(Cl)cc12` (stereo not drawn) [Example 23] it was 8.85; in that of `CCCC(c1ccc(C(=O)NCCC(=O)O)cc1)C(c1ccc(Cl)cc1)c1ccnc2cc(OC(F)(F)F)ccc12` (stereo not drawn) [Example 24], 10.00; in that of `CCCC(c1ccc(C(=O)NCCC(=O)O)cc1)C(c1ccc(Cl)cc1)c1ccnc2c(C)cc(F)cc12` (stereo not drawn) [Example 35], 9.10. The compound `CCCC(c1ccc(C(=O)NCCC(=O)O)cc1)C(c1ccc(Cl)cc1)c1cc(C)nc2cc(Cl)ccc12` (stereo not drawn) [Example 37] gave a negative logarithm of the IC50 (pIC50) of 9.40. With `CCCC(c1ccc(C(=O)NCCC(=O)O)cc1)C(c1ccc(Cl)cc1)c1ccnc2cc(C)c(Cl)cc12` (stereo not drawn) [Example 50] the figure was 9.30; with `CCCC(c1ccc(C(=O)NCCC(=O)O)cc1)C(c1ccc(Cl)cc1)c1ccnc2c(C)cc(OC(F)(F)F)cc12` (stereo not drawn) [Example 52], 8.96; with `O=C(O)CCNC(=O)c1ccc(C(CCC(F)(F)F)C(c2ccc(Cl)cc2)c2ccnc3cc(Cl)ccc23)cc1` (stereo not drawn) [Example 55], 9.70. With `CCCC(c1ccc(C(=O)NCCC(=O)O)cc1)C(c1ccc(OC(F)(F)F)cc1)c1ccnc2cc(F)ccc12` (stereo not drawn) [Example 62] the figure was 9.70; with `CCCC(c1ccc(C(=O)NCCC(=O)O)cc1)C(c1ccc(Cl)cc1)c1ccnc2c(F)c(C)c(F)cc12` (stereo not drawn) [Example 72], 9.70. With `Cc1cc2nccc(C(c3ccc(Cl)cc3)C(CCC(F)(F)F)c3ccc(C(=O)NCCC(=O)O)cc3)c2cc1F` (stereo not drawn) [Example 77] the figure was 9.70; with `CCCC(c1ccc(C(=O)NCCC(=O)O)cc1)C(c1ccc(Cl)c(Cl)c1)c1ccnc2c(C)cc(Cl)cc12` (stereo not drawn) [Example 84], 9.52. Consider `CCCC(c1ccc(C(=O)NCCC(=O)O)cc1)C(c1ccc(Cl)cc1)c1cccc2nc(OC3CCC3)ccc12` (stereo not drawn) [Example 108], for which the pIC50 was 9.40.

In the case of `CCCC(c1ccc(C(=O)NCCC(=O)O)cc1)C(c1ccc(Cl)cc1)c1cccc2nc(OCCOC)ccc12` (stereo not drawn) [Example 112], the pIC50 is 9.05. In the case of `CCC(c1ccc(C(=O)NCCC(=O)O)cc1)C(c1ccc(OC(F)(F)F)cc1)c1cccc2nc(OC)ccc12` (stereo not drawn) [Example 115] it was 9.52; in that of `CCCC(c1ccc(C(=O)NCCC(=O)O)cc1)C(c1ccc(Cl)cc1)c1ccc2nc(OC)ccc2c1` (stereo not drawn) [Example 120], 8.74. In the case of `CCCC(c1ccc(C(=O)NCCC(=O)O)cc1)C(c1ccc(Cl)cc1)c1cncc2c(Cl)cccc12` (stereo not drawn) [Example 131] it was 9.30; in that of `O=C(O)CCNC(=O)c1ccc(C(CCC(F)(F)F)C(c2ccc(Cl)cc2)c2cncc3cc(Cl)ccc23)cc1` (stereo not drawn) [Example 138], 9.40. In the case of `CCCC(c1ccc(C(=O)NCCC(=O)O)cc1)C(c1ccc(OC(F)(F)F)cc1)c1cncc2cc(Cl)ccc12` (stereo not drawn) [Example 139] it was 9.52; in that of `CCCC(c1ccc(C(=O)NCCC(=O)O)cc1)C(c1ccc(Cl)cc1)c1cccc2ccc(OC)nc12` (stereo not drawn) [Example 146], 7.92; in that of `CCCC(c1ccc(C(=O)NCCC(=O)O)cc1)C(c1cccc(Cl)c1)c1ccnc2cc(F)c(F)cc12` (stereo not drawn) [Example 159], 9.22.

The compound `CCC[C@H](c1ccc(C(=O)NCCC(=O)O)cc1)C(c1ccc(Cl)cc1)c1cccc2nc(-c3ccn[nH]3)ccc12` (stereo partly drawn) [Example 171, N-(4-{(1S)-1-[(4-Chlorophenyl)(2-(1H-Pyrazol-5-Yl)Quinolin-5-Yl)Methyl]Butyl}Benzoyl)-β-Alanine] had a pIC50 of 7.74.

Regarding `CCCC(c1ccc(C(=O)NCCC(=O)O)cc1)C(c1ccc(Cl)cc1)c1nc(C2CCCCC2)c2ccc(C(F)(F)F)cc2n1` (stereo not drawn) [Example 179], the negative-log IC50 (pIC50) is 8.35.

These data come from patent US8436015B2, “Glucagon receptor antagonist compounds, compositions containing such compounds and methods of use” (Merck Sharp & Dohme Corp., priority 2008, dated 2013).
